According to ChEMBL document CHEMBL3507680, “University of Dundee, Gates Library screen for HepG2 cell viability”:

Test: Human HepG2 cell viability assay in 384 well format
Assay type: toxicity, cell-based
Design: dose 125 nL, time 70.5 hour; concentration not given beside the values
Settings: HepG2 cells, read-out: Inhibition

SMILES	cytotoxicity at 70.5 h [%]
COc1cc(C(=O)NCC2CC2)nc2c(C)cc(F)cc12	-4.75
COCC(=O)N1CC[C@]2(O)CCN(Cc3cccnc3OC)C[C@@H]2C1	-7.29
COCCN1Cc2nccn2CC(COCc2csc(C)n2)C1 (stereo not drawn)	-1.7
COc1cc(NC(=O)Cn2ccc3sc(C)cc3c2=O)cc(OC)c1	-22
Cc1sc2nc(C(F)(F)F)nc(N3CCCN(C)CC3)c2c1C	22.1
CCC(=O)N1CCC(c2nc(N3CCCCC3)ncc2S(C)(=O)=O)CC1	-2.83
CC(=O)NCc1cc(-c2cccs2)n(C2CCCC2)n1	-2.19
CCn1cc2c(n1)CN(S(=O)(=O)c1ccc(C)cc1)CC2COC (stereo not drawn)	-1.69
COc1ncc(C(=O)NCc2ccccc2)cn1	0.247
COc1ccc(CNC(=O)CCN2CCOC(C(F)(F)F)C2)cc1 (stereo not drawn)	-7.56
O=c1cc(N2CCCC2)cnn1CCc1cccc(F)c1	34.6
CCc1c(C)nn(CCNC(=O)c2cc(C3CC3)n[nH]2)c1C	-2.41
O=C(Cc1ccccn1)N1CCCC(c2nccn2CC2CCC2)C1 (stereo not drawn)	-24.3
CCC(=O)N1CCc2onc(CNS(C)(=O)=O)c2C1	9.89
Cc1ccoc1C(=O)N1CC[C@@H]2O[C@@H](C)C[C@H]2C1	0.684
CC(C)c1nc(C2CCCN(C(=O)CCn3cncn3)C2)no1 (stereo not drawn)	-2.58
CC(C)N(Cc1ccc(C#N)cc1)C(=O)NCCNc1ncccn1	-12.7
COc1ccc(CCCC(=O)N2CCCC(n3cccn3)C2)cc1 (stereo not drawn)	14.5
Cn1cccc1C(=O)N1CCC2(CCN2c2ncccn2)C1 (stereo not drawn)	-3.82
OCCOc1ccc(NCc2cccc3cccnc23)cn1	17.1
N#CC1=C(N)Nn2c(nnc2-c2ccccc2F)S1	-36.2
O=C(Cc1ccsc1)N1Cc2nc(CN3CCCCC3)oc2C1	-4.42
COc1ccccc1CC(=O)N1CCCC(CNS(C)(=O)=O)C1 (stereo not drawn)	-9.26

SMILES	cytotoxicity at 70.5 h [%]
CC(C)(C)OC(=O)N1CCCc2ccc(NCc3cc[nH]c3)cc21	-9.07
CCCc1nc(C)cc(N2CCC3(CCC(=O)N(CCOC)C3)CC2)n1	-9.62
Cc1cccnc1CN1CCN(C(=O)c2ccn(C(C)(C)C)c2)CC1	40.4
O=C(N[C@@H]1CN(Cc2cccs2)[C@@H]2COC[C@@H]21)C1CCC1	-4.79
Cc1ccc(C(=O)N2CC[C@H]3[C@@H]2CCC(=O)N3c2cccnc2)o1	-13.5
CC(=O)N1CCC(n2nccc2-c2cnc(N)nc2)CC1	-6.3
O=C1N(Cc2cccc(F)c2)CCC12CCCNC2 (stereo not drawn)	-13.6
COc1cccc2c1OCC(CNC(=O)CSc1ccccn1)C2 (stereo not drawn)	-6.38
COCC(=O)N1C[C@H]2CNC[C@@]2(C(=O)NCc2nc(C)cc(C)n2)C1	-7.28
Cc1cc(CN2CC3(CCN(C(=O)C4CC4)CC3)CC2C(=O)O)oc1C (stereo not drawn)	-7.26
NC(=O)NCC(=O)N1C[C@H]2CC[C@@H]1CN(C1Cc3ccccc3C1)C2	-10.1
CC(C)(C)c1ccc(C2(C(=O)NCCCS(C)(=O)=O)CC2)cc1	-1.31
COc1ccc(C(C)N2CCC(CO)CC2)cc1Cl (stereo not drawn)	-2.59
c1ccc(-c2nc(CCNC3CCOC4(CCOCC4)C3)no2)cc1 (stereo not drawn)	-8.69
COCCN1CCC2(CC1)CN(C(=O)c1cccs1)CCO2	33.9
CCCn1cc(-c2cc(C(=O)N(C)C)c3cccc(C)c3n2)cn1	-7.56
CC(=O)c1cn(CC(=O)N[C@H](C(=O)O)C(C)C)c2ccccc12	-13.5
CN1CCCC1c1cc2cccnc2n1Cc1ccc(F)cc1 (stereo not drawn)	-5.23
CCOC(=O)c1ccc(CNC(=O)c2ccncc2Cl)o1	-7.26
CCS(=O)(=O)N1CCc2cc(C(=O)NC)c(N(C)C)nc2CC1	5.95
Cc1sc(NS(=O)(=O)c2ccccc2)nc1C(=O)NC1CC1	-1.95
CC(C)(O)CCc1ccc(C(=O)NCC2CCCOC2)cc1 (stereo not drawn)	-2.37
O=C(C(CNCc1ccco1)c1ccccc1)N1CCOCC1 (stereo not drawn)	-4.97

SMILES	cytotoxicity at 70.5 h [%]
COc1ccc(-c2n[nH]cc2CN(C)Cc2nccn2C)c(F)c1	-3.33
O=C1COC2(CCN(Cc3cccnc3)CC2)CN1	12.3
Cc1cccc(CN2C[C@H]3CC[C@@H]2CN(Cc2[nH]cnc2C)C3)n1	-5.25
COC(=O)c1ccc(C2SC(C)=Nc3c2c(=O)[nH]n3C2CCCC2)cc1 (stereo not drawn)	-14.5
CC(C)c1nn(C)c(N2CCOCC2)c1CNC(C)c1ccco1 (stereo not drawn)	-2.73
CC(C)N1CC(C(=O)NCc2ccnc(-n3cccn3)c2)CC1=O (stereo not drawn)	-26.8
CN(C)c1ccc(C(=O)Nc2ccn(CCc3ccncc3)n2)cn1	0.589
CCOC(=O)N1CCN(C(=O)c2snnc2-c2ccc(OC)cc2)CC1	-11.6
Cc1ccc(N2CC3(CCN(c4nccs4)C3)C2)nn1	-4.92
CCc1nc(N2CCN(CCOC)CC2)c2cnn(C)c2n1	-11.9
CCOc1ccc(OC2CCCN(c3cnn(C)c3)C2=O)cc1 (stereo not drawn)	10.6
CC(C)(C)OC(=O)NCCC(=O)NCC(O)c1cccc(F)c1 (stereo not drawn)	-0.447
CCOCc1nn(C)c2c1CN(CCO)CC2	-6.16
COc1nn(C)cc1C(=O)N1CCC(c2nnc(-c3ccsc3)o2)CC1	-6.31
O=C1CCCc2[nH]c(=O)c(C(=O)N3CCc4ccccc4C3)cc21	0.27
CCc1ccccc1CNC(=O)CNC(=O)C(C)(C)C	-6.65
CCN(CC)S(=O)(=O)c1cc(NC(=O)CCc2cscn2)ccc1C	-6.12
O=C1CN(Cc2cn(C3CCN(C4CSCCSC4)CC3)nn2)CCN1	-13.2
Fc1ccccc1-c1nc(CNCCn2cccn2)cs1	-3.88
Cc1cnc(-c2nc(C3CCN(Cc4ccccc4O)CC3)no2)cn1	-4.91
CC1(c2ccc(Br)cc2)CC(=O)N(CCC(N)=O)C1=O (stereo not drawn)	-6.18
CC(=O)NCC1CCN(c2cc(C(C)C)nc3ccnn23)CC1	-9.59
Cc1cnn(CCC(=O)N2CCCN(c3cccnn3)CC2)c1	-2.44

SMILES	cytotoxicity at 70.5 h [%]
O=C([C@@H]1COC[C@H]2CN(C3CCOCC3)C[C@H]21)N1CCOCC1	-1.42
CC(C)(C)n1ncc(NCC(O)c2ccccc2)c(Cl)c1=O (stereo not drawn)	25.2
O=S1(=O)CCN2C(=N1)Oc1ccc(S(=O)(=O)N3CCCC3)cc12	-5.8
CC(C)(C)c1ncc(CNCC2CN(C3CC3)CCO2)s1 (stereo not drawn)	-2.48
CC(=O)N(Cc1ncc(C)o1)C1CCN(CCc2cccs2)C1 (stereo not drawn)	17.8
Cc1cc(C(=O)N2CC(O)CO2)c2cccc(C)c2n1 (stereo not drawn)	-13
Cc1cc(C(=O)N2CCC3(C2)CN(c2ccsc2)C(=O)CN3C)[nH]n1 (stereo not drawn)	-7.61
CC(C)n1nnnc1-c1ccc(NC(=O)N(C)CCN(C)C)cc1F	-7.88
CCN1CC[C@@]2(C(=O)N3CCCC3)CCN(S(C)(=O)=O)CC[C@@H]12	-8.95
COC(=O)CCN(CC1CCCO1)C(=O)CCc1ccc(OC)cc1 (stereo not drawn)	-7.89
COCCN1CCN(c2ccc(CN(C)C)cn2)CC1	16.1
CC(C)c1nc(N2CCN3CCCC3C2)c2cnn(C)c2n1 (stereo not drawn)	1.45
Cc1cc(C)n(C2CCCN(C(=O)c3cccc4[nH]ncc34)C2)n1 (stereo not drawn)	-4.99
CN(C(=O)CN1CCc2nn(C)c(=O)cc2C1)c1nccs1	-4.13
O=C(CCn1cc(Cl)cn1)N1C[C@@H]2CC[C@H](C1)N(Cc1ccccn1)C2	-11.7
CC(CO)NC(=O)c1ccc(NCc2ccc(F)c(F)c2)cc1 (stereo not drawn)	-0.038
c1cncc(COCC2CNCc3nccn3C2)c1 (stereo not drawn)	3.07
Cc1nccn1CC1CCCN1S(=O)(=O)Cc1cccc(C#N)c1 (stereo not drawn)	29.1
CC(=O)N1N=C(c2ccccc2)OC1C(=O)N(C)Cc1ccccc1 (stereo not drawn)	-4.44
CC(C)(C)SCC(=O)NCCc1csc(N2CCCC2)n1	-6.06
Cc1cccc(C(C(=O)NCCCc2ccccn2)N(C)C)c1 (stereo not drawn)	21.2
CC(C)c1cc2c(O)nc(CSCC(=O)NCc3ccncc3)nc2s1	-12.9
O=C(NCCO)c1sc2ncccc2c1C1CNCCO1 (stereo not drawn)	-4.56

SMILES	cytotoxicity at 70.5 h [%]
CC(=O)N1CCCCC[C@@H]2[C@@H]1[C@H](c1cccc(F)c1)CN2CCC(N)=O	-9.36
Cc1cccc(SC2CCN(Cc3nc(CC4CC4)no3)CC2)c1	0.0623
Clc1ccc(Cc2nc(CNCCn3cccn3)cs2)cc1	-1.63
CCOc1ncccc1C(=O)N1CCN(C)C2(CCN(C)CC2)C1	4.53
CCN(CC1CCCO1)S(=O)(=O)N1CCCCCC1 (stereo not drawn)	-8.65
Cn1nc(COc2cccnc2)c2c1CCN(c1cnccn1)C2	-14.9
Cc1cc(NC(=O)CNC2CCc3ncnn3C2)no1 (stereo not drawn)	-18.6
COc1ccc(-c2nc(CN3CCCC(OC)C3)c(C)o2)c(F)c1 (stereo not drawn)	10.8
CC(C)=CCN1CCN(Cc2nccn2C)C(C)C1 (stereo not drawn)	22
O=C(NCc1ccc(-n2cncn2)nc1)c1cc(Cl)ccn1	12.5
CCN1CCC(N2CCC(c3nc(C)cc(C)n3)C2)CC1 (stereo not drawn)	-2.1
Cn1c(Cn2ccnc2)nnc1C1CCN(C(=O)C2(C)CC2)CC1	-9.41
Cc1nnc2n1CCN(C(C(=O)NC1CC1)c1ccccc1)C2 (stereo not drawn)	-10.2
CS(=O)(=O)N[C@@H]1CCO[C@]2(CCN(CC3CCOCC3)C2)C1	-5.05
Cc1cc(Cc2cccc(C(F)(F)F)c2)cc(C2CCCNC2)n1 (stereo not drawn)	2.41
O=C(c1cccnc1)N1CCOC(Cc2ccccc2Cl)C1 (stereo not drawn)	0.0235
CNC(=O)c1ccc(CNCc2ccc(SC)c(OC)c2)cc1	27
COc1ccnc(N(C)Cc2csc(C)n2)n1	-6.22
N#CC1(NC(=O)CNCCn2cccn2)CCCCC1	-1.06
O=C(CN(C1=NCCCC1)c1ccccc1)c1ccccc1	25.2
Cc1cc(C)c2nc(CN3C[C@H](CCO)[C@@H](N)C3)cc(O)c2c1	-4.09
